Measurements reported in BindingDB's records for PubMed 31759729 (University of Electronic Science and Technology of China, 2020).
pIC50: −log10 of the molar value.

Biological target: cGMP-specific 3',5'-cyclic phosphodiesterase (Homo sapiens, UniProt O76074)
Assay: Inhibition of PDE-5A (unknown origin)

| SMILES | pIC50 |
| --- | --- |
| CC(C)=CCc1c(O)c2c(c3c1OC(C)(C)C=C3)CC=C(c1ccc3c(c1)OCCO3)C2=O | 5.57 |
| CC(C)=CCC1=C(O)c2c(occ(-c3ccc(O[N+](=O)[O-])cc3)c2=O)C2C=CC(C)(C)OC12 (configuration not stated) | 6.30 |
